# According to patent publication US9062124B2, “GIP-based mixed agonists for treatment of metabolic disorders and obesity” (priority 2008, dated 2015):
# Where a SMILES comes first, the peptide text is derived from it. Bridges are numbered along the chain shown (N, C = ends). [ ]: non-standard residue; d: D form. The star is where a group is joined. Myristoyl = CCCCCCCCCCCCCC(=O)*; Aib = CC(C)(N)C(=O)O; Bz = O=C(c1ccccc1)*
# Columns and labels:
# Type in all cases: cell-based
# [1] = biological target: T1, glucagon receptor (Homo sapiens, UniProt P47871); assay: cAMP synthesis functional assay (firefly luciferase reporter in HEK293 cells), glucagon receptor
# T1 construct: expressed in transfected cells; host or cells: HEK293
# T1 sequence (P47871 26-477): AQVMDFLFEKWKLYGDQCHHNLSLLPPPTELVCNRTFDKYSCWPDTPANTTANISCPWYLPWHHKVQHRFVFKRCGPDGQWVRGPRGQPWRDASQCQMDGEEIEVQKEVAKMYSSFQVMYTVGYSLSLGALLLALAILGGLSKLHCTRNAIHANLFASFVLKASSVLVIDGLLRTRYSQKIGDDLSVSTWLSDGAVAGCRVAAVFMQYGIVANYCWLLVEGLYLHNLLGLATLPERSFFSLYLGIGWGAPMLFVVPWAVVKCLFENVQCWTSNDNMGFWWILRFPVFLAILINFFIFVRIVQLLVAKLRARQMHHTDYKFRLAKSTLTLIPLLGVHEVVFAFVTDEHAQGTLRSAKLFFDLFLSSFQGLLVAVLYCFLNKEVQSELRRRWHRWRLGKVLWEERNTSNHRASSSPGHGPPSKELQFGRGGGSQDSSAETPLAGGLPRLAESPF
# [2] = biological target: T2, GLP-1 receptor (Homo sapiens, UniProt P43220); assay: cAMP synthesis functional assay (firefly luciferase reporter in HEK293 cells), GLP-1 receptor
# T2 construct: expressed in transfected cells; host or cells: HEK293
# T2 sequence (P43220 24-463, species assumed): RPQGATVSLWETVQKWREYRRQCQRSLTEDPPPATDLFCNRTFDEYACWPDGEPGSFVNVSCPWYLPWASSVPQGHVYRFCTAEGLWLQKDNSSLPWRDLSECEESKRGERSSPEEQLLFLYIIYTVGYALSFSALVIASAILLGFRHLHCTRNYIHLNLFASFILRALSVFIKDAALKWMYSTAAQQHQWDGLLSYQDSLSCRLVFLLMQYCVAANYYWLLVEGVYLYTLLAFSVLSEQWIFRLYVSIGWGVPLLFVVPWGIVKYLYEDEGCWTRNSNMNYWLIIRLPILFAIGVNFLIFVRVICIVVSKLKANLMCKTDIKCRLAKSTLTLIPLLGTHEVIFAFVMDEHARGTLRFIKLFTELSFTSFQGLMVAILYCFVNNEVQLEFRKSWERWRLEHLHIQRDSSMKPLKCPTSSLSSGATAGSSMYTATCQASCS
# [3] = biological target: T3, GIP receptor (Homo sapiens, UniProt P48546); assay: cAMP synthesis functional assay (firefly luciferase reporter in HEK293 cells), GIP receptor
# T3 construct: expressed in transfected cells; host or cells: HEK293
# T3 sequence (P48546 22-466): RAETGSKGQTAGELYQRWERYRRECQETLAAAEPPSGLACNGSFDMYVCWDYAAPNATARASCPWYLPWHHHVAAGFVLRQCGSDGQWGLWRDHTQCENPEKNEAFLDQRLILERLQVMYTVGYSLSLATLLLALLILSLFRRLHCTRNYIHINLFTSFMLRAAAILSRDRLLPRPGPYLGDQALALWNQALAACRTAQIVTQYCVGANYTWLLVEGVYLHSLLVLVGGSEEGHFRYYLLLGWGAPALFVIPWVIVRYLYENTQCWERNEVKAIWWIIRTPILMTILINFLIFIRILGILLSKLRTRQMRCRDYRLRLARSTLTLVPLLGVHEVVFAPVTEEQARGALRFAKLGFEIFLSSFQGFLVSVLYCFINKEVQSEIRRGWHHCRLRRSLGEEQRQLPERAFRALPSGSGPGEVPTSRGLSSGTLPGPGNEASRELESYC
# [4] = Table 1, relative to the native hormone of the indicated receptor
# [5] = relative to the standard (Std.) EC50 of the same run
Structure (SMILES),"Glucagon Receptor relative activity [1, 4] [%]","GLP-1 Receptor relative activity [2, 4] [%]","GIP Receptor relative activity [3, 4] [%]","EC50 ([1]; Glucagon Receptor EC50, nM, Table 1) [nM]","Glucagon Receptor relative activity [1, 5] [%]","EC50 ([2]; GLP-1 Receptor EC50, cAMP luciferase reporter assay as in Example 16) [pM]","GLP-1 Receptor relative activity [2, 5] [%]","EC50 ([3]; GIP Receptor EC50, cAMP luciferase reporter assay as in Example 16) [pM]","GIP Receptor relative activity [3, 5] [%]"
CC[C@H](C)[C@@H]1NC(=O)[C@@H](NC(=O)[C@H](CC(=O)O)NC(=O)[C@H](CC(C)C)NC(=O)[C@H](Cc2ccc(O)cc2)NC(=O)[C@H](CCCCN)NC(=O)[C@H](CO)NC(=O)[C@H](Cc2ccc(O)cc2)NC(=O)[C@H](CC(=O)O)NC(=O)[C@H](CO)NC(=O)[C@@H](NC(=O)[C@H](Cc2ccccc2)NC(=O)[C@@H](NC(=O)CNC(=O)[C@H](CCC(N)=O)NC(=O)[C@H](CO)NC(=O)[C@@H](N)Cc2c[nH]cn2)[C@@H](C)O)[C@@H](C)O)CCC(=O)NCCCC[C@@H](C(=O)N[C@@H](CC(=O)O)C(=O)N[C@@H](Cc2ccccc2)C(=O)N[C@H](C(=O)N[C@@H](CC(N)=O)C(=O)N[C@@H](Cc2c[nH]c3ccccc23)C(=O)N[C@@H](CC(C)C)C(=O)N[C@@H](CC(C)C)C(=O)N[C@@H](C)C(=O)NCC(=O)NCC(=O)N2CCC[C@H]2C(=O)N[C@@H](CO)C(=O)N[C@@H](CO)C(=O)NCC(=O)N[C@@H](C)C(=O)N2CCC[C@H]2C(=O)N2CCC[C@H]2C(=O)N2CCC[C@H]2C(=O)N[C@@H](CO)C(N)=O)C(C)C)NC(=O)[C@H](CCC(N)=O)NC(=O)[C@H](Cc2c[nH]cn2)NC1=O [mt-115] (H-HSQGTFTSDYSKYLDEIHQKDFVNWLLAGGPSSGAPPPS-NH2; lactam 16-20; N-terminus assumed),11.36,20.00,1.31,,,,,,
CC[C@H](C)[C@H](NC(=O)[C@H](CO)NC(=O)[C@H](Cc1ccc(O)cc1)NC(=O)[C@H](CC(=O)O)NC(=O)[C@H](CO)NC(=O)[C@@H](NC(=O)[C@H](Cc1ccccc1)NC(=O)[C@@H](NC(=O)CNC(=O)[C@H](CCC(N)=O)NC(=O)[C@H](CO)NC(=O)CNC(=O)c1ccccc1)[C@@H](C)O)[C@@H](C)O)C(=O)N[C@@H](Cc1ccc(O)cc1)C(=O)N[C@@H](CC(C)C)C(=O)N[C@@H](CC(=O)O)C(=O)N[C@H]1CCC(=O)NCCCC[C@@H](C(=O)N[C@@H](CCC(=O)O)C(=O)N[C@@H](Cc2ccccc2)C(=O)N[C@H](C(=O)N[C@@H](CC(N)=O)C(=O)N[C@@H](Cc2c[nH]c3ccccc23)C(=O)N[C@@H](CC(C)C)C(=O)N[C@@H](CC(C)C)C(=O)N[C@@H](C)C(=O)NCC(=O)NCC(=O)N2CCC[C@H]2C(=O)N[C@@H](CO)C(=O)N[C@@H](CO)C(=O)NCC(=O)N[C@@H](C)C(=O)N2CCC[C@H]2C(=O)N2CCC[C@H]2C(=O)N2CCC[C@H]2C(=O)N[C@@H](CO)C(N)=O)C(C)C)NC(=O)[C@H](C)NC(=O)[C@H](C)NC(=O)[C@H](CCC(N)=O)NC1=O [mt-154] (Bz-GSQGTFTSDYSIYLDEQAAKEFVNWLLAGGPSSGAPPPS-NH2; lactam 16-20),7.40,0.70,1.07,,,,,,
CC[C@H](C)[C@H](NC(=O)[C@H](CO)NC(=O)[C@H](Cc1ccc(O)cc1)NC(=O)[C@H](CC(=O)O)NC(=O)[C@H](CO)NC(=O)[C@@H](NC(=O)[C@H](Cc1ccccc1)NC(=O)[C@@H](NC(=O)CNC(=O)[C@H](CCC(N)=O)NC(=O)[C@H](CO)NC(=O)[C@@H](N)Cc1ccc(O)cc1)[C@@H](C)O)[C@@H](C)O)C(=O)N[C@@H](Cc1ccc(O)cc1)C(=O)N[C@@H](CC(C)C)C(=O)N[C@@H](CC(=O)O)C(=O)N[C@@H](CCC(=O)O)C(=O)N[C@@H](CCC(N)=O)C(=O)N[C@H]1CCCCNC(=O)CC[C@@H](C(=O)N[C@@H](Cc2ccccc2)C(=O)N[C@H](C(=O)N[C@@H](CC(N)=O)C(=O)N[C@@H](Cc2c[nH]c3ccccc23)C(=O)N[C@@H](CC(C)C)C(=O)N[C@@H](CC(C)C)C(=O)N[C@@H](C)C(=O)NCC(=O)NCC(=O)N2CCC[C@H]2C(=O)N[C@@H](CO)C(=O)N[C@@H](CO)C(=O)NCC(=O)N[C@@H](C)C(=O)N2CCC[C@H]2C(=O)N2CCC[C@H]2C(=O)N2CCC[C@H]2C(=O)N[C@@H](CO)C(N)=O)C(C)C)NC(=O)[C@H](CCCCN)NC(=O)[C@H](C)NC1=O [mt-168] (H-YSQGTFTSDYSIYLDEQKAKEFVNWLLAGGPSSGAPPPS-NH2; lactam 18-21; N-terminus assumed),4.79,1.45,0.32,2.61,,,,,
CC[C@H](C)[C@H](NC(=O)[C@H](Cc1ccccc1)NC(=O)[C@H](CC(=O)O)NC(=O)[C@@H]1CCCCNC(=O)CC[C@H](NC(=O)[C@H](CC(=O)O)NC(=O)[C@H](CC(C)C)NC(=O)[C@H](Cc2ccc(O)cc2)NC(=O)[C@H](CCCCN)NC(=O)[C@H](CO)NC(=O)[C@H](Cc2ccc(O)cc2)NC(=O)[C@H](CC(=O)O)NC(=O)[C@H](CO)NC(=O)[C@@H](NC(=O)[C@H](Cc2ccccc2)NC(=O)[C@@H](NC(=O)CNC(=O)[C@H](CCC(N)=O)NC(=O)[C@H](CO)NC(=O)[C@@H](N)Cc2ccc(O)cc2)[C@@H](C)O)[C@@H](C)O)C(=O)N[C@@H]([C@@H](C)CC)C(=O)N[C@@H](Cc2c[nH]cn2)C(=O)N[C@@H](CCC(N)=O)C(=O)N1)C(=O)N[C@@H](C)C(=O)N[C@@H](Cc1c[nH]c2ccccc12)C(=O)N[C@@H](CC(C)C)C(=O)N[C@@H](CCSC)C(=O)N[C@@H](CC(N)=O)C(=O)NCC(=O)NCC(=O)N1CCC[C@H]1C(=O)N[C@@H](CO)C(=O)N[C@@H](CO)C(=O)NCC(=O)N[C@@H](C)C(=O)N1CCC[C@H]1C(=O)N1CCC[C@H]1C(=O)N1CCC[C@H]1C(=O)N[C@@H](CO)C(N)=O [mt-129] (H-YSQGTFTSDYSKYLDEIHQKDFIAWLMNGGPSSGAPPPS-NH2; lactam 16-20; N-terminus assumed),17.34,1.12,2.06,,,,,,
CCCCCCCCCCCCCC(=O)NCCCC[C@H](NC(=O)[C@H](CC(=O)O)NC(=O)[C@H](CO)NC(=O)[C@@H](NC(=O)[C@H](Cc1ccccc1)NC(=O)[C@@H](NC(=O)CNC(=O)[C@H](CCC(=O)O)NC(=O)C(C)(C)NC(=O)[C@@H](N)Cc1ccc(O)cc1)[C@@H](C)O)[C@@H](C)O)C(=O)N[C@@H](CO)C(=O)N[C@H](C(=O)N[C@@H](Cc1ccc(O)cc1)C(=O)N[C@@H](CC(C)C)C(=O)N[C@@H](CC(=O)O)C(=O)N[C@@H](CCCCN)C(=O)N[C@@H](CCC(N)=O)C(=O)N[C@@H](C)C(=O)N[C@@H](C)C(=O)NC(C)(C)C(=O)N[C@@H](CCC(=O)O)C(=O)N[C@@H](Cc1ccccc1)C(=O)N[C@H](C(=O)N[C@@H](CS)C(=O)N[C@@H](Cc1c[nH]c2ccccc12)C(=O)N[C@@H](CC(C)C)C(=O)N[C@@H](CC(C)C)C(=O)N[C@@H](C)C(=O)NCC(=O)NCC(=O)N1CCC[C@H]1C(=O)N[C@@H](CO)C(=O)N[C@@H](CO)C(=O)NCC(=O)N[C@@H](C)C(=O)N1CCC[C@H]1C(=O)N1CCC[C@H]1C(=O)N1CCC[C@H]1C(=O)N[C@@H](CO)C(N)=O)C(C)C)[C@@H](C)CC [mt-337] (H-Y[Aib]EGTFTSDK(Myristoyl)SIYLDKQAA[Aib]EFVCWLLAGGPSSGAPPPS-NH2; N-terminus assumed),,,,,0.02,8.2,74.39,8,115.00
CC[C@H](C)[C@H](NC(=O)[C@H](CO)NC(=O)[C@H](Cc1ccc(O)cc1)NC(=O)[C@H](CC(=O)O)NC(=O)[C@H](CO)NC(=O)[C@@H](NC(=O)[C@H](Cc1ccccc1)NC(=O)[C@@H](NC(=O)CNC(=O)[C@H](CCC(=O)O)NC(=O)[C@H](C)NC(=O)[C@@H](N)Cc1ccc(O)cc1)[C@@H](C)O)[C@@H](C)O)C(=O)N[C@@H](Cc1ccc(O)cc1)C(=O)N[C@@H](CCSC)C(=O)N[C@@H](CC(=O)O)C(=O)N[C@H]1CCC(=O)NCCCC[C@@H](C(=O)N[C@@H](CC(=O)O)C(=O)N[C@@H](Cc2ccccc2)C(=O)N[C@H](C(=O)N[C@@H](CC(N)=O)C(=O)N[C@@H](Cc2c[nH]c3ccccc23)C(=O)N[C@@H](CC(C)C)C(=O)N[C@@H](CC(C)C)C(=O)N[C@@H](C)C(=O)N[C@@H](CCC(N)=O)C(N)=O)C(C)C)NC(=O)[C@H](CCC(N)=O)NC(=O)[C@H](Cc2c[nH]cn2)NC(=O)[C@H]([C@@H](C)CC)NC1=O [mt-98] (H-YAEGTFTSDYSIYMDEIHQKDFVNWLLAQ-NH2; lactam 16-20; N-terminus assumed),0.01,1.42,25.00,,,,,,
CC[C@H](C)[C@H](NC(=O)[C@H](CO)NC(=O)[C@H](Cc1ccc(O)cc1)NC(=O)[C@H](CC(=O)O)NC(=O)[C@H](CO)NC(=O)[C@@H](NC(=O)[C@H](Cc1ccccc1)NC(=O)[C@@H](NC(=O)CNC(=O)[C@H](CCC(N)=O)NC(=O)C(C)(C)N)[C@@H](C)O)[C@@H](C)O)C(=O)N[C@@H](Cc1ccc(O)cc1)C(=O)N[C@@H](CC(C)C)C(=O)N[C@@H](CC(=O)O)C(=O)N[C@H]1CCC(=O)NCCCC[C@@H](C(=O)N[C@@H](CCC(=O)O)C(=O)N[C@@H](Cc2ccccc2)C(=O)N[C@H](C(=O)N[C@@H](CC(N)=O)C(=O)N[C@@H](Cc2c[nH]c3ccccc23)C(=O)N[C@@H](CC(C)C)C(=O)N[C@@H](CC(C)C)C(=O)N[C@@H](C)C(=O)NCC(N)=O)C(C)C)NC(=O)[C@H](C)NC(=O)[C@H](C)NC(=O)[C@H](CCC(N)=O)NC1=O [mt-198] (H-[Aib]QGTFTSDYSIYLDEQAAKEFVNWLLAG-NH2; lactam 15-19; N-terminus assumed),0.53,0.17,0.02,,,,,,
